Here are results for one compound from patent publication US11191736B2, “Pharmaceutical formulations containing cannabidiol and nicotine for treating smokeless tobacco addiction” (CV Sciences, Inc., priority 2016, dated 2021).

One assay has as its target T1, MAO-B enzyme (Homo sapiens, UniProt P27338).
T1 sequence (P27338 1-520): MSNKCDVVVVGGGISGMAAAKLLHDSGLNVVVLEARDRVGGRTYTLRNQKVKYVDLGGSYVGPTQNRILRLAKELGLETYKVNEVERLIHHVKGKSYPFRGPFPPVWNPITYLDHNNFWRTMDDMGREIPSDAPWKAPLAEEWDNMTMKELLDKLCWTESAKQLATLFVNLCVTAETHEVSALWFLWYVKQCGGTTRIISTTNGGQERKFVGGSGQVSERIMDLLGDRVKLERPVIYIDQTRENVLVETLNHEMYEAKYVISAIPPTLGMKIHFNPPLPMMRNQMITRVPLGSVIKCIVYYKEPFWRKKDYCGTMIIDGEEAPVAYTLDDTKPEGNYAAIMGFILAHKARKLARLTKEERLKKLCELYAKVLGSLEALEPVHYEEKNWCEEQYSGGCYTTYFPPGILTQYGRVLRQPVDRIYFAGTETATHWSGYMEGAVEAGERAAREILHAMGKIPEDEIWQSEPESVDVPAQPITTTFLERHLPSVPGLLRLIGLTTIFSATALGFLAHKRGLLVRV
In words: MAO-Glo luminescent assay, MAO-B inhibition. The class given is biochemical. The conditions noted are these: FIG. 2. From the text:
(§1) This example describes experiments for determining monoamine oxidase (MAO) inhibition activity for cannabidiol. MAOs are enzymes located on the outer membrane of mitochondria and are involved in the catabolism of monoamine neurotransmitters. There are two well-characterized isoenzymes: MAO-A, which predominantly catabolizes serotonin and norepinephrine, and MAO-B, which preferentially catabolizes benzylamine and phenylethylamine. Dopamine and tyramine are metabolized by both isoforms.
(§2) To detect the activity of MAO, a luminescent method (MAO-Glo Assay kit, from Promega, Cat #V1401) was used. In this method, a MAO substrate (a derivative of beetle luciferin provided in the kit) is mixed with the compound to be tested (in this case, myosmine and control compounds). Then, the MAO-A or MAO-B enzyme is added to the mixture and incubated with the reaction for 1 hour at room temperature. The MAO enzymes, if not inhibited by the test compound, will convert the substrate into methyl ester luciferin. Finally, a luciferin detection reagent (provided by the kit) is added (20 minutes at room temperature) to stop the MAO reaction and convert methyl ester luciferin into D-luciferin. […] The luminescent signal is measured and recorded using a luminometer.

The next assay addresses T2, MAO-A enzyme (Homo sapiens, UniProt P21397).
T2 sequence (P21397 1-527): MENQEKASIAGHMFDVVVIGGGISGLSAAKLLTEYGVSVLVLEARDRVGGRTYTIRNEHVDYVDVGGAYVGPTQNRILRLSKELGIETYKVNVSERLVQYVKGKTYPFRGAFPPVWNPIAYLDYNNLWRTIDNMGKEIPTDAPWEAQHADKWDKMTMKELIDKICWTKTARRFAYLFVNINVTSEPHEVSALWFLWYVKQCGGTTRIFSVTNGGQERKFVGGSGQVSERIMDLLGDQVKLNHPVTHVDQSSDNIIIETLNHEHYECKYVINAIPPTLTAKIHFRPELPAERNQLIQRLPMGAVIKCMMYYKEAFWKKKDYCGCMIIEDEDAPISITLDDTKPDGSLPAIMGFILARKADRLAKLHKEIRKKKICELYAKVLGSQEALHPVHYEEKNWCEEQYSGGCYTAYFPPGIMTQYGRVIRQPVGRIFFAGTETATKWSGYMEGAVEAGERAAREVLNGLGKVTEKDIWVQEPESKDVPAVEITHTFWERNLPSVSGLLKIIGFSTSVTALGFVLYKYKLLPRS
The assay can be described thus: MAO-Glo luminescent assay, MAO-A inhibition. It is filed as biochemical. The note with it: FIG. 1.
Excerpt: as §1, §2

The test system of a further assay is monoamine oxidase (MAO). The note with it: Current Drug Safety, 2011, Vol. 6, No. 4; cited from earlier work.
The mark [1] stands for this setting: at a concentration of 7.5 mM (7,500 micromolar).

For orientation: inhibition means the share of the control response that was lost under treatment. Low readings indicate a weak effect, high ones a strong effect. For `C=C(C)[C@@H]1CCC(C)=C[C@H]1c1c(O)cc(CCCCC)cc1O` [CBD, 2-[(1R,6R)-3-methyl-6-(1-methylethenyl)-2-cyclohexen-1-yl]-5-pentyl-1,3-benzenediol], at MAO-B enzyme (compared with MAO-A activity), the “MAO-B inhibition, result in words” value is “also inhibits MAO-B activity, although to a lesser extent than MAO-A activity”. In addition, the inhibition at 7500 µM against MAO-B enzyme (setting [1]) was approximately 30%; on MAO-A enzyme (setting [1]) it was approximately 50%. The “MAO-A inhibition, result in words” value at MAO-A enzyme (compared with nornicotine) was “potent inhibitor of MAO-A, in fact to an even greater extent than nornicotine”. Besides, the “inhibiting monoamine oxidase (MAO) activity, prior report” value with monoamine oxidase (MAO) is on record as “ineffective”.
